According to PubChem BioAssay (NCI):
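Results reflect a 48-hour exposure of cells in 96-well plates to compound at five concentrations. GI50: concentration for 50% inhibition of growth. TGI: total growth inhibition.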

Key:
Assay in all cases: NCI-60 cell line screen, 48 h
[1] = tested on: SW-620 colon
[2] = tested on: MOLT-4 leukemia
[3] = tested on: DU-145 prostate
[4] = tested on: OVCAR-8 ovarian
[5] = tested on: SNB-75 CNS
[6] = tested on: UACC-257 melanoma
[7] = tested on: A498 renal
[8] = tested on: UO-31 renal
[9] = tested on: CAKI-1 renal
[10] = tested on: HCC-2998 colon

SMILES	TGI [1] [µM]	TGI [2] [µM]	TGI [3] [µM]	TGI [4] [µM]	TGI [5] [µM]	TGI [6] [µM]	TGI [7] [µM]	TGI [8] [µM]	TGI [9] [µM]	TGI [10] [µM]	GI50 [1] [µM]	GI50 [2] [µM]	GI50 [3] [µM]	GI50 [9] [µM]	GI50 [5] [µM]	GI50 [6] [µM]	GI50 [7] [µM]	GI50 [8] [µM]	GI50 [10] [µM]	GI50 [4] [µM]
N/C(=N\S(=O)(=O)c1cccc2nsnc12)Nc1ccc(Cl)cc1	> 100	> 100	> 100	> 100	> 100	32.5	59.5	> 100	–	–	–	–	–	–	–	–	–	–	–	–
CC(C)CCC[C@@H](C)[C@H]1CC[C@H]2[C@@H]3CC[C@H]4C[C@H](N)CC[C@]4(C)[C@H]3CC[C@]12C	> 100	> 100	33.9	86.4	57.1	41.6	57.5	30.3	59	64	–	–	–	–	–	–	–	–	–	–
O=C1N(c2ccccc2)C2(c3ccccc3)CC3CCCC13S2 (stereo not given)	> 100	> 100	> 100	> 100	–	51.1	> 100	> 100	> 100	–	–	–	–	–	–	–	–	–	–	–
C=CCc1cc(-c2cc(CC=C)c(O)c(CNC)c2)cc(CNC)c1O	31.7	31.1	–	32.5	24.3	29.9	34.6	25.8	–	30	–	–	–	–	–	–	–	–	–	–
N#CC(c1nc2ccccc2s1)c1ncnc(Cl)c1[N+](=O)[O-] (stereo not given)	35.5	> 100	> 100	34.7	> 100	41	> 100	91.3	> 100	–	–	–	–	–	–	–	–	–	–	–
O=S1(=O)C(c2ccccc2)C(N2CCCCC2)C1C1CC2c3ccccc3C1c1ccccc12 (stereo not given)	> 100	> 100	> 100	> 100	> 100	> 100	> 100	> 100	> 100	–	–	–	–	–	–	–	–	–	–	–
COc1cc(/C=N/n2c(Cc3ccc(Cl)cc3)n[nH]c2=O)cc(OC)c1OC	> 100	> 100	–	> 100	> 100	> 100	> 100	> 100	> 100	> 100	–	–	–	–	–	–	–	–	–	–
CC(=O)Nc1ccc(N=C2C(c3ccccc3)=C(SC3=C(c4ccccc4)C(=Nc4ccc(NC(C)=O)cc4)c4ccccc43)c3ccccc32)cc1	> 100	63	> 100	> 100	> 100	> 100	87.1	> 100	> 100	> 100	–	–	–	–	–	–	–	–	–	–
O=C1CS(=O)(=O)C(c2cccc(Oc3ccccc3)c2)N1c1cccc(Cl)c1 (stereo not given)	> 100	58.1	> 100	82.8	> 100	46.4	–	> 100	83.5	15.7	–	–	–	–	–	–	–	–	–	–
O=c1cc(-c2ccc(O)cc2)n(C2CC2)c2ccccc12	26.7	> 100	21.5	47.1	–	25.8	–	21.1	20.8	–	–	–	–	–	–	–	–	–	–	–
CCN1C=C/C(=C\C=C/c2cc[n+](CC)c3ccccc23)c2ccccc21	16.2	19.7	26.3	17.1	7.57	9.76	8.78	35.6	–	19	–	–	–	–	–	–	–	–	–	–
c1ccc(C2CC(c3cccc(Nc4ccncc4)c3)=NN2c2ccccc2)cc1 (stereo not given)	3.27	4.83	4.02	–	2.88	4.15	3.03	2.8	2.74	2.96	1.65	2.02	1.95	1.39	1.32	1.94	1.42	1.48	1.58	–
Cc1ccc(NP(=O)(Oc2ccccc2)N(CCCl)CCCl)cc1 (stereo not given)	> 100	> 100	–	> 100	> 100	> 100	> 100	> 100	> 100	> 100	–	–	–	–	–	–	–	–	–	–
O=C(C[C@H](NC(=O)OCc1ccccc1)C(=O)NC1Cc2ccccc2OC1=O)OCc1ccccc1 (stereo not given in full)	–	> 100	> 100	> 100	> 100	–	> 100	> 100	> 100	66.5	–	–	–	–	–	–	–	–	–	–
CCCCCCCCCCCCCCCc1ccc(OCC(O)CO)cc1 (stereo not given)	49.1	> 100	–	72.7	72	> 100	> 100	> 100	> 100	49.9	–	–	–	–	–	–	–	–	–	–
Cn1c(-c2cccs2)cc(-c2ccccc2)c1-c1cccs1	> 100	> 100	> 100	> 100	> 100	> 100	> 100	> 100	> 100	> 100	–	–	–	–	–	–	–	–	–	–
Nc1cc2c(nnn2C2OC(COCc3ccccc3)C(OCc3ccccc3)C2OCc2ccccc2)c(=O)[nH]1 (stereo not given)	> 100	38.9	> 100	> 100	> 100	58.6	> 100	> 100	> 100	–	–	–	–	–	–	–	–	–	–	–
CN(C)c1nc(N(C)C)nc(N(C)CN(C)c2ccc(Cl)cc2)n1	> 100	> 100	–	> 100	> 100	> 100	–	> 100	–	–	–	–	–	–	–	–	–	–	–	–
CN(c1cc2ncc(=O)[nH]c2cc1NC(N)=NCc1ccc(Cl)cc1)C1CCCCC1	11.2	14.6	14.3	23.3	10.1	19.2	15.4	15.8	14.5	5.29	4.33	6.59	7.56	7.47	2.87	9.77	8.04	8.21	1.73	10.4
